Converted amounts (≈) assume the structure as drawn. “And” between values parts separate entries of the source, which are not always exact repeats. Equal values may be shown once.
Experiments:
A549 cell line = test: MTT anti-proliferative assay, A549; format: cell-based, Human; conditions: for IC50: Homo sapiens, A549, 48 h, A549, MTT, 2 days; for Selective index: SI = IC50 normal cells (WISH)/IC50 A549
Description: (§1) Cell lines; WISH cell line (Human amnion-derived normal epithelial cells, CCL-25), MDA-MB-231 cell line (Human, mammary gland/breast adenocarcinoma, HTB-26), CaCo-2 cell line (Human Colorectal adenocarcinoma, epithelial cells, HTB-37), A549 cell line (Human Lung adenocarcinoma, epithelial cells, CCL-185) cell lines and HepG-2 (liver hepatocellular carcinoma, HEPG2, HB-8065) were obtained from ATCC, originally with license and serial numbers as mentioned.
(§2) The safety assays of coumarin hybrids on noncancerous cell lines and their anticancer effects on cancerous cells were gauged utilizing MTT-assay (Promega) in accordance with the instruction protocol. Starting from 60 to 200 µM, serial dilutions of coumarin hybrids were prepared in sterile DMSO to be treated cell lines at final concentrations 30 to 100 µM. The treated cells were incubated for 2 days, and the cellular cytotoxicity was detected by quantifying the solubilized formazan in DMSO at 570 nm. The inhibition concentration of 50 (IC50) was calculated from the cytotoxicity% curve using GraphPad prism 9.
(§3) Cancer cell selectivity index of Coumarin hybrids samples were measured as explained by, with a minor modification; (SI = IC50nc/IC50cc), where IC50nc refers to the value of IC50 of the coumarin hybrids compounds on normal cells, while IC50cc refers to the IC50 of the coumarin hybrids compounds on cancer cell line.

Candida albicans = test: Antimicrobial microplate assay (MIC), C. albicans; format: cell-based; conditions: two values per compound
Description: (§4) Microbial strains: Escherichia coli, pseudomonas aeruginosa, Staphylococcus aureus, Streptococcus mutans and Candida albicans were collected from the microbial culture collection of Biopharmaceutical Products Research Department, Genetic Engineering and Biotechnology Research Institute, SRTA-City, New Borg El-Arab city, Alexandria, Egypt.
(§5) The antimicrobial activity of coumarin hybrids samples were checked against different multiple drug resistant microorganisms (Escherichia coli, pseudomonas aeruginosa, Staphylococcus aureus and Streptococcus mutans and Candida albicans) using various concentrations (30 to 100 µM). An aliquot of 100.0 µl of each sample concentration was added to an equal volume of each microbial growth dilution (about 10^6 CFU/ml) and inoculated into 96 well plate. Furthermore, 100.0 µl of LB media was added to 100.0 µl of microbial growth to set as the negative control group. After that, the inoculated plates were incubated overnight at 37 °C then, the microbial turbidity was measured using automated ELIZA microplate reader (BINDER BIOTECK E LX 800) adjusted at 620 nm. The microbial inhibition percentage after treatments were quantified using the following equation:1 Inhibition percentage=A-A1/A0×100. where, A: the treatment group absorbance, A1: the blank absorbance, and A0: the control group absorbance.

MDA-MB-231 cell line = test: MTT anti-proliferative assay, MDA-MB-231; format: cell-based, Human; conditions: for IC50: MDA-MB-231, MTT, 2 days; for Selective index: SI = IC50 normal cells (WISH)/IC50 MDA-MB-231
Description: as §1, §2, §3

Escherichia coli = test: Antimicrobial microplate assay (MIC), E. coli; format: cell-based; conditions: two values per compound
Description: as §4, §5

Streptococcus mutans = test: Antimicrobial microplate assay (MIC), S. mutans; format: cell-based; conditions: two values per compound
Description: as §4, §5

CaCo-2 cell line = test: MTT anti-proliferative assay, CaCo-2; format: cell-based, Human; conditions: for IC50: CaCo-2, MTT, 2 days; for Selective index: SI = IC50 normal cells (WISH)/IC50 CaCo-2
Description: as §1, §2, §3

Staphylococcus aureus = test: Antimicrobial microplate assay (MIC), S. aureus; format: cell-based; conditions: Staph. aureus, two values per compound
Description: as §4, §5

WISH cell line = test: MTT safety assay on WISH normal cells; format: cell-based, Human; conditions: 2 days
Description: as §1, §2

HepG-2 = test: MTT anti-proliferative assay, HepG-2; format: cell-based, human; conditions: for IC50: HepG-2, MTT, 2 days; for Selective index: SI = IC50 normal cells (WISH)/IC50 HepG-2
Description: as §1, §2, §3

pseudomonas aeruginosa = test: Antimicrobial microplate assay (MIC), P. aeruginosa; format: cell-based
Description: as §4, §5

SMILES | IC50 (A549 cell line) | MIC (Candida albicans; Candida albicans) | MIC (Candida albicans) | IC50 (MDA-MB-231 cell line; Homo sapiens, MDA-MB-231, 48 h) | MIC (Escherichia coli; Escherichia coli) | MIC (Escherichia coli) | MIC (Streptococcus mutans; Streptococcus mutans) | MIC (Streptococcus mutans) | IC50 (CaCo-2 cell line; Homo sapiens, Caco-2, 48 h) | MIC (Staphylococcus aureus) | MIC (Staphylococcus aureus; Staphylococcus aureus) | Selective index (A549 cell line) | Selective index (MDA-MB-231 cell line) | Selective index (CaCo-2 cell line) | IC50 (WISH cell line; Homo sapiens, 48 h) | IC50 (HepG-2; Homo sapiens, HepG2, 48 h) | Selective index (HepG-2) | further results
O=C(NNc1ccnc2cc(Cl)ccc12)c1cc2ccccc2oc1=O [7a, N'-(7-Chloroquinolin-4-yl)-2-oxo-2H-chromene-3-carbohydrazide] | 51.7 µM | 62 µM (≈ 22.7 µg/mL) | 61 µM (≈ 22.3 µg/mL) | 211 µM | 29 µM (≈ 10.6 µg/mL) | 28 µM (≈ 10.2 µg/mL) | 248 µM (≈ 90.7 µg/mL) | 246 µM (≈ 90 µg/mL) | 57.1 µM | 31 µM (≈ 11.3 µg/mL) | 30 µM (≈ 11 µg/mL) | 1.5 and 1.533 | 0.3752 | 1.38 and 1.39 | 79.3 µM | 75.4 µM | 1.051 | melting point: 294 to 296 °C
O=C(NCCNc1ccnc2cc(Cl)ccc12)c1cc2ccccc2oc1=O [7b, N-(2-((7-Chloroquinolin-4-yl)amino)ethyl)-2-oxo-2H-chromene-3-carboxamide] | 54.8 µM | 28 µM (≈ 11 µg/mL) | 27 µM (≈ 10.6 µg/mL) | 154 µM | 45 µM (≈ 17.7 µg/mL) | 43 µM (≈ 16.9 µg/mL) | 100 µM (≈ 39.4 µg/mL) | 103 µM (≈ 40.6 µg/mL) | 52.8 µM | 22 µM (≈ 8.66 µg/mL) | 20 µM (≈ 7.88 µg/mL) | 1.6 and 1.695 | 0.6038 | 1.76 and 1.764 | 92.9 µM | 88.7 µM | 1.049 | IC50 (CaCo-2 cell line): 52.8 µM; melting point: 274 to 276 °C
O=C(NCCCNc1ccnc2cc(Cl)ccc12)c1cc2ccccc2oc1=O [7c, N-(3-((7-Chloroquinolin-4-yl)amino)propyl)-2-oxo-2H-chromene-3-carboxamide] | 97.4 µM | 31 µM (≈ 12.6 µg/mL) | 30 µM (≈ 12.2 µg/mL) | 51 µM | 125 µM (≈ 51 µg/mL) | 126 µM (≈ 51.4 µg/mL) | 152 µM (≈ 62 µg/mL) | 150 µM (≈ 61.2 µg/mL) | 57.3 µM | 29 µM (≈ 11.8 µg/mL) | 28 µM (≈ 11.4 µg/mL) | 1.155 | 2.20 and 2.21 | 1.969 | 112 µM | 133 µM | 0.8456 | IC50 (MDA-MB-231 cell line): 51 µM
O=C(Nc1ccc(Nc2ccnc3cc(Cl)ccc23)cc1)c1cc2ccccc2oc1=O [7d, N-(4-((7-Chloroquinolin-4-yl)amino)phenyl)-2-oxo-2H-chromene-3-carboxamide] | – | 62 µM (≈ 27.4 µg/mL) | 60 µM (≈ 26.5 µg/mL) | 103 µM | 46 µM (≈ 20.3 µg/mL) | 45 µM (≈ 19.9 µg/mL) | 130 µM (≈ 57.4 µg/mL) | 132 µM (≈ 58.3 µg/mL) | 51.6 µM | 30 µM (≈ 13.3 µg/mL) | 29 µM (≈ 12.8 µg/mL) | 0.67 and 0.6789 | 1.351 | 2.666 | 138 µM | 82.8 µM | 1.67 and 1.671 | IC50 (CaCo-2 cell line): 52 µM; IC50 (HepG-2): 82.8 µM
O=C(Nc1ccc(Cc2ccc(Nc3ccnc4cc(Cl)ccc34)cc2)cc1)c1cc2ccccc2oc1=O [7e, N-(4-(4-((7-Chloroquinolin-4-yl)amino)benzyl)phenyl)-2-oxo-2H-chromene-3-carboxamide] | 152 µM | 25 µM (≈ 13.3 µg/mL) | 26 µM (≈ 13.8 µg/mL) | 70.5 µM | 19 µM (≈ 10.1 µg/mL) | 16 µM (≈ 8.51 µg/mL) | 160 µM (≈ 85.1 µg/mL) | 162 µM (≈ 86.2 µg/mL) | 86.3 µM | 24 µM (≈ 12.8 µg/mL) | 25 µM (≈ 13.3 µg/mL) | 0.6129 | 1.32 | 1.079 | 93.1 µM | 351 µM | 0.2658 | –
O=c1ccc2ccccc2o1 [Ct, coumarin] | 260 µM | 30 µM (≈ 4.38 µg/mL) | 29 µM (≈ 4.24 µg/mL) | 111 µM | 59 µM (≈ 8.62 µg/mL) | 58 µM (≈ 8.48 µg/mL) | 240 µM (≈ 35.1 µg/mL) | 241 µM (≈ 35.2 µg/mL) | 99.5 µM | 63 µM (≈ 9.21 µg/mL) | 62 µM (≈ 9.06 µg/mL) | 0.6915 | 1.599 | 1.701 | 176 µM | 232 µM | 0.7613 | –
COc1cccc2c1C(=O)c1c(O)c3c(c(O)c1C2=O)C[C@@](O)(C(=O)CO)C[C@@H]3O[C@H]1C[C@H](N)[C@H](O)[C@H](C)O1 [DOX, doxorubicin, reference compound] | 3.78 µM | – | – | 0.655 µM | – | – | – | – | 2.91 µM | – | – | 0.7653 | 1.954 | 0.6148 | 1.76 µM | 1.18 µM | 1.653 | –
O=C(O)c1cc2ccccc2oc1=O [compound 1, coumarin-3-carboxylic acid, reference compound] | 351 µM | 10 µM (≈ 1.9 µg/mL) | 9.8 µM (≈ 1.86 µg/mL) | 132 µM | 20 µM (≈ 3.8 µg/mL) | 21.76 µM (≈ 4.14 µg/mL) | 17 µM (≈ 3.23 µg/mL) | 16.65 µM (≈ 3.17 µg/mL) | 1110 µM | 8.5 µM (≈ 1.62 µg/mL) | 8 µM (≈ 1.52 µg/mL) | 0.9497 | 2.521 | 0.3027 | 334 µM | 924 µM | 0.3617 | IC50 (WISH cell line): 334 µM

More lines, main results first:

IC50 (A549 cell line) | MIC (Candida albicans; Candida albicans) | MIC (Candida albicans) | IC50 (MDA-MB-231 cell line; Homo sapiens, MDA-MB-231, 48 h) | MIC (Escherichia coli; Escherichia coli) | MIC (Escherichia coli) | MIC (Streptococcus mutans; Streptococcus mutans) | MIC (Streptococcus mutans) | IC50 (CaCo-2 cell line; Homo sapiens, Caco-2, 48 h) | MIC (Staphylococcus aureus) | MIC (Staphylococcus aureus; Staphylococcus aureus) | SMILES | Selective index (A549 cell line) | Selective index (MDA-MB-231 cell line) | Selective index (CaCo-2 cell line) | IC50 (WISH cell line; Homo sapiens, 48 h) | IC50 (HepG-2; Homo sapiens, HepG2, 48 h) | Selective index (HepG-2) | further results
– | – | – | – | – | – | 3.2 to 66 µM (≈ 1.31 to 27 µg/mL) | 5 µM and 5.5 µM | – | 3.2 µM (≈ 1.31 µg/mL) | 3.2 to 66 µM (≈ 1.31 to 27 µg/mL) | O=C(NCCNc1c2ccccc2nc2ccccc12)c1cc2ccccc2oc1=O [10b, N-(2-(Acridin-9-ylamino)ethyl)-2-oxo-2H-chromene-3-carboxamide] | – | – | – | – | – | – | MIC (pseudomonas aeruginosa): 14.8 µM (≈ 6.06 µg/mL)
130 µM | – | – | 109 µM | – | – | – | – | – | – | – | O=C(NCCCNc1c2ccccc2nc2ccccc12)c1cc2ccccc2oc1=O [10c, N-(3-(Acridin-9-ylamino)propyl)-2-oxo-2H-chromene-3-carboxamide] | – | 0.8462 | 0.77 | 56.7 µM | 107 µM | 0.5533 | MIC (pseudomonas aeruginosa): 15.4 µM (≈ 6.52 µg/mL); IC50 (CaCo-2 cell line): 56.7 µM; IC50 (CaCo-2 cell line; listed as 10): 145 µM; Selective index (CaCo-2 cell line; listed as 10): 0.7785; melting point: 261 to 263 °C
– | – | 0.0011 µM and 0.0014 µM | – | – | – | – | – | – | – | – | Cn1c2nc3ccccc3c-2c(NCCNC(=O)c2cc3ccccc3oc2=O)c2ccccc21 [13b, N-(2-((5-Methyl-5H-indolo[2,3, b]quinolin-11-yl)amino)ethyl)-2-oxo-2H-chromene-3-carboxamide] | – | – | – | – | – | – | –
65 µM | – | – | 89.9 µM | – | – | – | – | 84.8 µM | – | – | Cn1c2nc3ccccc3c-2c(NCCCNC(=O)c2cc3ccccc3oc2=O)c2ccccc21 [13c, N-(3-((5-methyl-5H-indolo[2,3-b]quinolin-11-yl)amino)propyl)-2-oxo-2H-chromene-3-carboxamide] | – | – | – | 95.9 µM | 71 µM | – | –

From publication PMC10733349, “Synthesis and in-vitro anti-proliferative with antimicrobial activity of new coumarin containing heterocycles hybrids” (Scientific Reports, 2023)
